Data published in patent publication US10532985B2, “Heterocycle and carbocycle derivatives having TRKA inhibitory activity” (Shionogi & Co., Ltd., priority 2014, dated 2020).

biological target: T1, human TrkA (Homo sapiens, UniProt P04629); assay: Test Example 2: Human TrkA Inhibition Assay; assay type: biochemical; conditions: Test Example 2; human TrkA 2.5 nmol/L, ATP 500 μmol/L, 90 min at room temperature; read-out: TrkA inhibitory activity IC50
T1 construct: purchased Lifetechnologies PV3144
T1 sequence (P04629 33-796): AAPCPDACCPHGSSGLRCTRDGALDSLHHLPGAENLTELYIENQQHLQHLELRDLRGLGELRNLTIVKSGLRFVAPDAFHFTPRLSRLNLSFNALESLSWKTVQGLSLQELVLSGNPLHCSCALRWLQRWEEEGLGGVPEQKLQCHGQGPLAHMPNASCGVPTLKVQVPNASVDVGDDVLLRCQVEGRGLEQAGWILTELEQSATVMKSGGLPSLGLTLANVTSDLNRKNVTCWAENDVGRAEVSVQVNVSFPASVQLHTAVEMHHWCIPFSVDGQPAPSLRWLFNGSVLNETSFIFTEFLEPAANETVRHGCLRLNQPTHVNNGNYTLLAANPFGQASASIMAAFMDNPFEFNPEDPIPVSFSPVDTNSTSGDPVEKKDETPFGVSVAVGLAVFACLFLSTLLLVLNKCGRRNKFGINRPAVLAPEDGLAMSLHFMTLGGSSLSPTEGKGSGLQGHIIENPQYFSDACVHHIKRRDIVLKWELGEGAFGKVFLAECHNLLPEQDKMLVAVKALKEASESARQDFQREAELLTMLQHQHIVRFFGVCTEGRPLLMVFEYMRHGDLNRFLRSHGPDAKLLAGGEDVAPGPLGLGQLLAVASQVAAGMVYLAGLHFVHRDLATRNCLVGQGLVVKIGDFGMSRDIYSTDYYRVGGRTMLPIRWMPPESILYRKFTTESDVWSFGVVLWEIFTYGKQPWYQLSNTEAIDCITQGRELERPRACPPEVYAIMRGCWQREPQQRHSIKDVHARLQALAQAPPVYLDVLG
Description: After the incubation for 90 min at room temperature, ten μL of termination buffer (100 mmol/L HEPES, 40 mmol/L ethylenediaminetetraacetic acid (EDTA), 10 mmol/L magnesium chloride, 0.003 vol % Brij-35, 0.004 vol % Tween20, 1 mmol/L DTT and 0.16 vol % Coating Reagent 3) was added in each well to stop the enzyme reaction. Fluorescent intensities (FI) of phosphorylated and non-phosphorylated fluorescent substrates were measured by LabChip EZReader II (Caliper LifeSciences, Inc.) and conversion ratio (CR) was calculated by the following formula-1. The CR in the well applied with DMSO alone was used as a negative control and the CR in the well without applying TrkA was used as a positive control. The inhibitory effect of each compound on TrkA phosphorylation was calculated by the following formula-2. CR (%)=(FI of phosphorylated substrate/(FI of phosphorylated substrate+FI of non-phosphorylated substrate))×100 (Formula-1) Inhibitory effect on TrkA phosphorylation (%)=(1−(CR in compound treated well−CR in positive control)/(CR in negative control−CR in positive control))×100. (Formula-2)

Going from `COC1CCC1N1C[C@@H](NC(=O)Nc2c(C)c(-c3cnn(C)c3)nn2-c2ccccc2)[C@H](c2ccc(F)c(F)c2)C1` (some centres unmarked) [Compound I-114] to `COCC(CC#N)N1C[C@@H](NC(=O)Nc2c(C)c(-c3cnn(C)c3)nn2-c2ccccc2)[C@H](c2ccc(F)c(F)c2)C1` (some centres unmarked) [Compound I-93], the IC50 falls from 120 nM to 21 nM (5.7-fold). The second is the more potent here.

Compared with `COCCN1C[C@@H](NC(=NS(C)(=O)=O)Nc2c(C)c(-c3cnn(C)c3)nn2-c2ccccc2)[C@H](c2ccccc2)C1` [Compound I-141], `Cc1c(-c2cnn(C)c2)nn(-c2ccccc2)c1NC(=O)N[C@@H]1CN(CC(F)(F)F)C(=O)[C@H]1c1ccccc1` (racemic) [Compound I-44] is 1.6-fold lower in IC50: 1100 nM for the first, 700 nM for the second.

same assay, conditions: human TrkA inhibition, Test Example 2; class symbols A/B/C; read-out: IC50_nM

Compared with `Cc1c(-c2cnn(C)c2)nn(-c2ccccc2)c1NC(=O)N[C@@H]1CN(CC2CCCO2)C[C@H]1c1ccc(F)c(F)c1` (some centres unmarked) [Compound I-24], `Cc1c(-c2cnn(C)c2)nn(-c2ccccc2)c1NC(=O)N[C@@H]1CN(CO)C[C@H]1c1ccc(F)c(F)c1` (racemic) [Compound I-67] is higher in IC50: 100 to 1000 nM for the first, > 1000 nM for the second.

`COCCN1[C@@H]2CCC[C@H]1[C@@H](c1ccc(F)c(F)c1)[C@@H]2NC(=O)Nc1c(C)c(-c2cnn(C)c2)nn1-c1ccccc1` (racemic) [Compound I-12] and `COCCN1[C@@H]2CC[C@H]1[C@@H](c1ccc(F)c(F)c1)[C@@H]2NC(=O)Nc1c(C)c(-c2cnn(C)c2)nn1-c1ccccc1` (racemic) [Compound I-30] cannot be ordered by IC50: > 1000 nM for the first, > 1000 nM for the second.

First: COCCN1C[C@@H](NC(=O)Nc2c(C)c(-c3cnn(C)c3)nn2-c2ccccc2)[C@H](c2nc3ccccc3o2)C1 (racemic) [Compound I-156]
Second: COCCN1C[C@@H](NC(=O)Nc2c(C)c(-c3cnn(C)c3)nn2-c2ccccc2)[C@H](c2ccc3ccccc3c2)C1 (racemic) [Compound I-104]
The IC50 of the first is higher: > 1000 nM for the first, < 100 nM for the second. The second is the more potent here.

Compared with `COCCN1C[C@@H](N(C)C(=O)Nc2c(C)c(-c3cnn(C)c3)nn2-c2ccccc2)[C@H](c2ccccc2)C1` (racemic) [Compound I-17], `COCCC1C[C@H](NC(=O)Nc2c(C)c(-c3cnn(C)c3)nn2-c2ccccc2)[C@@H](c2ccccc2)C1` (some centres unmarked) [Compound I-123] is lower in IC50: > 1000 nM for the first, 100 to 1000 nM for the second. The second is the more potent here.

`COC1CC2(C1)C[C@@H](NC(=O)Nc1c(C)c(-c3cnn(C)c3)nn1-c1ccccc1)[C@H](c1ccccc1)C2` (mixture of isomers) [Compound I-170] and `Cc1c(-c2cnn(C)c2)nn(-c2ccccc2)c1NC(=O)N[C@@H]1CC(C)(O)C[C@H]1c1ccccc1` (some centres unmarked) [Compound I-154] cannot be ordered by IC50: > 1000 nM for the first, > 1000 nM for the second.

First: Cc1c(-c2cnn(C)c2)nn(-c2ccccc2)c1NC(=O)N[C@@H]1CN(Cc2ccccc2)[C@H]1c1ccccc1 (racemic) [Compound I-11]
Second: Cc1c(-c2cnn(C)c2)nn(-c2ccccc2)c1NC(=O)N[C@@H]1CC(C)C[C@H]1c1ccccc1 (some centres unmarked) [Compound I-36]
The IC50 of the first is higher: > 1000 nM for the first, < 100 nM for the second.

First: COCC(CNOC)N1C[C@@H](NC(=O)Nc2c(C)c(-c3cnn(C)c3)nn2-c2ccccc2)[C@H](c2ccc(F)c(F)c2)C1 (some centres unmarked) [Compound I-113]
Second: COCC(CNO)N1C[C@@H](NC(=O)Nc2c(C)c(-c3cnn(C)c3)nn2-c2ccccc2)[C@H](c2ccc(F)c(F)c2)C1 (some centres unmarked) [Compound I-92]
The IC50 of the first is higher: 100 to 1000 nM for the first, < 100 nM for the second. The second is the more potent here.

`Cc1c(-c2cnn(C)c2)nn(-c2ccccc2)c1NC(=O)N[C@@H]1CN(S(C)(=O)=O)C[C@H]1c1ccc(F)c(F)c1` [Compound I-45] and `Cc1c(-c2cnn(C)c2)nn(-c2ccccc2)c1NC(=O)N[C@@H]1CN(CCCS(C)(=O)=O)C[C@H]1c1ccc(F)c(F)c1` [Compound I-64] cannot be ordered by IC50: > 1000 nM for the first, > 1000 nM for the second.

Compared with `COCCN1C[C@@H](NC(=O)Nc2c(C)c(-c3cnn(C)c3)nn2-c2ccccc2)[C@H](c2cccc(-c3ccccc3)c2)C1` (racemic) [Compound I-48], `COCCN1C[C@@H](NC(=O)Nc2c(C)c(-c3cnn(C)c3)nn2-c2ccccc2)[C@H](c2cccc(-c3cccc(C#N)c3)c2)C1` (racemic) [Compound I-52] is higher in IC50: < 100 nM for the first, 100 to 1000 nM for the second.

First: COCC(CCl)N1C[C@@H](NC(=O)Nc2c(C)c(-c3cnn(C)c3)nn2-c2ccccc2)[C@H](c2ccc(F)c(F)c2)C1 (some centres unmarked) [Compound I-99]
Second: COCC(CNC(C)=O)N1C[C@@H](NC(=O)Nc2c(C)c(-c3cnn(C)c3)nn2-c2ccccc2)[C@H](c2ccc(F)c(F)c2)C1 (some centres unmarked) [Compound I-112]
The IC50 of the first is lower: < 100 nM for the first, 100 to 1000 nM for the second. The first is the more potent here.

Compared with `Cc1c(-c2cnn(C)c2)nn(-c2ccccc2)c1NC(=O)N[C@@H]1CN(Cc2ccoc2)C[C@H]1c1ccc(F)c(F)c1` [Compound I-118], `Cc1c(-c2cnn(C)c2)nn(-c2ccccc2)c1NC(=O)N[C@@H]1CN(Cc2nccs2)C[C@H]1c1ccc(F)c(F)c1` [Compound I-97] is lower in IC50: 100 to 1000 nM for the first, < 100 nM for the second. The second is the more potent here.

Compared with `Cc1c(-c2cnn(C)c2)nn(-c2ccccc2)c1NC(=O)N[C@@H]1C[C@@H](C)N(C)[C@H]1c1ccc(F)c(F)c1` (racemic) [I 78], `C=C1C[C@@H](NC(=O)Nc2c(C)c(-c3cnn(C)c3)nn2-c2ccccc2)[C@H](c2ccc(F)c(F)c2)C1` (racemic) [Compound I-135] is lower in IC50: > 1000 nM for the first, 100 to 1000 nM for the second.

`COCCN1C[C@@H](NC(=O)Nc2c(C)c(-c3cnn(C)c3)nn2-c2ccccc2)[C@H](c2cccc(-c3cncnc3)c2)C1` (racemic) [Compound I-59] and `COCCN1C[C@@H](NC(=O)Nc2c(C)c(-c3cnn(C)c3)nn2-c2ccccc2)[C@H](c2cccc(-c3cn[nH]c3)c2)C1` (racemic) [Compound I-175] cannot be ordered by IC50: > 1000 nM for the first, > 1000 nM for the second.

`COC(=O)[C@@H]1C[C@@H](NC(=O)Nc2c(C)c(-c3cnn(C)c3)nn2-c2ccccc2)[C@H](c2ccc(F)c(F)c2)N1` (racemic) [Compound I-47] and `Cc1c(-c2cnn(C)c2)nn(-c2ccccc2)c1NC(=O)NC1CNCCC1c1ccc(F)c(F)c1` (centres unmarked) [Compound I-2] cannot be ordered by IC50: > 1000 nM for the first, > 1000 nM for the second.

`CNC(=O)C(COC)N1C[C@@H](NC(=O)Nc2c(C)c(-c3cnn(C)c3)nn2-c2ccccc2)[C@H](c2ccc(F)c(F)c2)C1` (some centres unmarked) [Compound I-137] and `COCC(C(N)=O)N1C[C@@H](NC(=O)Nc2c(C)c(-c3cnn(C)c3)nn2-c2ccccc2)[C@H](c2ccc(F)c(F)c2)C1` (some centres unmarked) [Compound I-133] fall in the same range of IC50: 100 to 1000 nM for the first, 100 to 1000 nM for the second.

Compared with `COCCN1C[C@@H](NC(=O)C(O)c2c(C)c(-c3cnn(C)c3)nn2-c2ccccc2)[C@H](c2ccc(F)c(F)c2)C1` (some centres unmarked) [Compound I-79], `COCCN1CCC(c2ccc(F)c(F)c2)C(NC(=O)Nc2c(C)c(-c3cnn(C)c3)nn2-c2ccccc2)C1` (centres unmarked) [Compound I-4] is higher in IC50: 100 to 1000 nM for the first, > 1000 nM for the second.

First: COCCN1C[C@@H](NC(=O)Nc2c(C)c(-c3cnn(C)c3)nn2-c2ccccc2)[C@H](c2cccc(-c3ccc(C(=O)OC)cc3)c2)C1 (racemic) [Compound I-54]
Second: COCCN1C[C@@H](NC(=O)Nc2c(C)c(-c3cnn(C)c3)nn2-c2ccccc2)[C@H](c2cccc(-c3ccccc3C#N)c2)C1 (racemic) [Compound I-55]
The IC50 of the first is higher: > 1000 nM for the first, 100 to 1000 nM for the second. The second is the more potent here.

Compared with `CCON=C1C[C@@H](NC(=O)Nc2c(C)c(-c3cnn(C)c3)nn2-c2ccccc2)[C@H](c2ccccc2)C1` [Compound I-120], `CCC1C[C@@H](NC(=O)Nc2c(C)c(-c3cnn(C)c3)nn2-c2ccccc2)[C@H](c2ccccc2)C1` (some centres unmarked) [Compound I-103] is lower in IC50: 100 to 1000 nM for the first, < 100 nM for the second.

First: COCC(CNC(=O)OC)N1C[C@@H](NC(=O)Nc2c(C)c(-c3cnn(C)c3)nn2-c2ccccc2)[C@H](c2ccc(F)c(F)c2)C1 (some centres unmarked) [Compound I-139]
Second: Cc1c(-c2cnn(C)c2)nn(-c2ccccc2)c1NC(=O)N[C@@H]1CN(CCNC(=O)OC(C)(C)C)C[C@H]1c1ccc(F)c(F)c1 [Compound I-31]
The IC50 of the first is lower: 100 to 1000 nM for the first, > 1000 nM for the second.

First: COCCC1C[C@@H](NC(=O)Nc2c(C)c(-c3cnn(C)c3)nn2-c2ccccc2)[C@H](c2ccccc2)C1 (some centres unmarked) [Compound I-85]
Second: CCOC(=O)CC1C[C@@H](NC(=O)Nc2c(C)c(-c3cnn(C)c3)nn2-c2ccccc2)[C@H](c2ccccc2)C1 (some centres unmarked) [Compound I-124]
The IC50 of the first is lower: < 100 nM for the first, 100 to 1000 nM for the second.

`Cc1c(-c2cnn(C)c2)nn(-c2ccccc2)c1NC(=O)N[C@@H]1CN(c2nn[nH]n2)C[C@H]1c1ccc(F)c(F)c1` [Compound I-148] and `Cc1c(-c2cnn(C)c2)nn(-c2ccccc2)c1NC(=O)N[C@@H]1CN(C#N)C[C@H]1c1ccc(F)c(F)c1` [Compound I-173] cannot be ordered by IC50: > 1000 nM for the first, > 1000 nM for the second.

Going from `Cc1c(-c2cnn(C)c2)nn(-c2ccccc2)c1NC(=O)N[C@@H]1CN(C(C)c2ccco2)C[C@H]1c1ccc(F)c(F)c1` (some centres unmarked) [Compound I-101] to `CCOC1CC(N2C[C@@H](NC(=O)Nc3c(C)c(-c4cnn(C)c4)nn3-c3ccccc3)[C@H](c3ccc(F)c(F)c3)C2)C1` (some centres unmarked) [Compound I-160], the IC50 rises from < 100 nM to > 1000 nM. The first is the more potent here.

First: COCCN1C[C@@H](NC(=O)Nc2c(C)c(-c3cnn(C)c3)nn2-c2ccccc2)[C@H](c2ccc(C(=O)O)cc2)C1 (racemic) [Compound I-83]
Second: COCCC1C[C@@H](NC(=O)Nc2c(C)c(-c3cnn(C)c3)nn2-c2ccccc2)[C@H](c2ccccc2)C1 (some centres unmarked) [Compound I-88]
The IC50 of the first is higher: > 1000 nM for the first, < 100 nM for the second. The second is the more potent here.

`Cc1c(-c2cnn(C)c2)nn(-c2ccccc2)c1NC(=O)N[C@@H]1CN(C2CCCCC2)C[C@H]1c1ccc(F)c(F)c1` [Compound I-143] and `Cc1c(-c2cnn(C)c2)nn(-c2ccccc2)c1NC(=O)N[C@@H]1CN(CCNC(=O)C(F)(F)F)C[C@H]1c1ccc(F)c(F)c1` [Compound I-72] cannot be ordered by IC50: > 1000 nM for the first, > 1000 nM for the second.

`COCCN1C[C@@H](NC(=O)Nc2c(C)c(-c3cnn(C)c3)nn2-c2ccccc2)[C@H](C2CCC(F)(F)CC2)C1` (racemic) [Compound I-33] gave an IC50 of 100 to 1000 nM.
